Read-outs that look alike come from different tables or passages of the source.
Experiments:
[1] = system: Primary human dermal fibroblasts (HDF-N2)
Procedure: Cell cultures: Primary human dermal fibroblasts (HDF-N2) are maintained in Dulbecco's culture media (DMEM; 1 g/l glucose), supplemented with 10% of fetal calf serum (FCS), 100 μg/ml of streptomycin sulphate, 100 μml of penicillin and 2 mM of L-glutamine, all of them from Biowhitaker, USA. Confluent cells are detached by incubation for 3 minutes in 0.055 trypsin/0.53 mM EDTA at 37° C. and plated at the established cell density (normally, 15×10^4 cells/cm^2).
Culture media of negative controls are containing 10 mMol NaCl or 0.05% DMSO or 0.05% ethanol, respectively. Positive control is a culture medium containing 0.02% of Sodium Lauryl Sulfate (SDS).
For comparative purposes, a further culture medium is used containing the compound of the formula

[2] = system: squalene peroxidation (squalenehydroperoxide) in skin lipids; assay: Efficacy against photooxidative stress in the skin induced by UVA irradiation (squalenehydroperoxide, HPLC); type: in vivo, human
Procedure: Anti-oxidant activity in vivo is measured via the capacity of a test compound to reduce radical induced lipid-peroxidation. • Persons tested: 10 individuals (4 female, 6 male); age range: 18 to 32 years • Body region tested: inner forearm • Application phase: once a day • Test period 7 days • Evaluation method: Determination of squalene • Determination of squalenehydroperoxide • Time of Evaluation: after UVA radiation • Evaluation: Descriptive statistics: average, median, minimum, maximum, variance, standard error, standard deviation; Multiple range test. Test Method
On the inner forearm of each subject symmetrically opposed areas are defined. The different formulations are applied once a day at a dose of about 2 mg of test solution/cm^2 for one week (application with a syringe for fine dosage: Omnifix®-F 1 ml; manufacturer: Braun Melsungen AG, Germany).
Two areas remain untreated.
The unique application of a solution of tocopherol in ethanol (0.2%) before irradiation serves as control.
Use of other cosmetic products is restricted on the test areas throughout the whole study. The areas (exception: one of the two untreated areas was not irradiated and can be attributed to environmental UVA radiation during the test) of the […] were then irradiated with UVA light (10 joule/cm^2). The lipids present on the test areas are harvested via a solvent extraction (4 ml ethanol for 2 minutes). The samples are first filtered through hydrophobic polypropylene filters to decant squames and other insoluble material, then dried under nitrogen at room temperature and taken up in 1 ml ethanol. Squalene (SQ) and squalenehydroperoxide (SQOOH) are then analysed by High Performance Liquid Chromatography (HPLC).
The fluorometer is used as a photon detector with the excitation source turned off.
This assay measures the hydroperoxy groups themselves and not indirect indices of lipid peroxidation such as conjugated dienes or breakdown products of lipid hydroperoxides. Chemiluminescence also detects ubiquinols. To confirm that any chemiluminescence observed in this assay was due to a hydroperoxide, not a hydroquinone, some samples were reduced with triphenyl phosphine and rerun.
Measuring data are centrally computerised after validity check and quality assurance. Evaluation is done using the software Statgraphics for Windows, Version 5.0—Manugistics, USA. Data are analysed by multiple range test (LSD: Least Significant Differences). The 0.05 level is selected as the point of minimal acceptance statistical significance.

[3] = 1% b.w. solution in ethanol, about 2 mg/cm^2 once a day for 7 days, inner forearm, UVA 10 joule/cm^2, 10 individuals
[4] = 5% stock solution in DMSO or ethanol diluted 1:500 in culture medium with 10% FCS, 48 h HDF cultures, more absorption = more viable cells

Compound	Absorbance (OD450) after 24 h treatment ([1]; human, 24 h, 0.01 %)	average inhibition in % of peroxidation (SQOOH relative to untreated area) [2, 3] [%]	other results
CC(c1cc(C(C)(C)C)cc(C(C)(C)C)c1O)c1cc(C(C)(C)C)cc(C(C)(C)C)c1O [AO4]	1.0	28	
CC(C)(C)c1cc(CCC(=O)Nc2ccc(S(=O)(=O)[O-])cc2)cc(C(C)(C)C)c1O.[Na+] [AO6]	1.9	28	
CC1(C)CC(O)CC(C)(C)N1O [AO8]		21	Absorbance (OD450) after 24 h treatment [1, 4]: 1.65
Cc1c(C)c2c(c(C)c1O)CC[C@@](C)(CCC[C@H](C)CCC[C@H](C)CCCC(C)C)O2 [Control, tocopherol, reference compound]			average inhibition in % of peroxidation (SQOOH relative to untreated area) ([2]; unique application of tocopherol in ethanol (0.2%) before irradiation, UVA 10 joule/cm^2): 22.5%
CCCCCCCCCCCCOS(=O)(=O)[O-].[Na+] [SDS, Sodium Lauryl Sulfate, reference compound]			Absorbance (OD450) after 24 h treatment ([1]; positive control, culture medium containing 0.02% Sodium Lauryl Sulfate, 48 h HDF cultures): 0.25
CC(C)Cc1ccc(Oc2ccccc2)cc1O [comparison, reference compound]	0.25		
pentaerythritol-tetrakis(3-[3′,5′-di-tert.butyl-4′-hydroxyphenyl]-propionate) [AO7]			Absorbance (OD450) after 24 h treatment [1, 4]: 2.0; average inhibition in % of peroxidation (SQOOH relative to untreated area) ([2]; 0.1% b.w. solution in ethanol, about 2 mg/cm^2 once a day for 7 days, inner forearm, UVA 10 joule/cm^2, 10 individuals): 21.5%

Reference: patent US10098849B2, “Anti-radical agents” (BASF SE, priority 2004, dated 2018)
